Test results published in patent US20220274997A1, “PIM KINASE INHIBITOR COMPOSITIONS AND USES THEREOF” (Snap Bio, Inc., priority 2019, published 2022).

System: DU-145
Assay: CellTiter-Glo cancer cell growth inhibition, DU-145
Format: cell-based
Conditions: Homo sapiens, DU-145, 72 h
Excerpt: The CellTiter-Glo® Luminescent Cell Viability Assay is a sensitive homogeneous method to determine the number of viable cells in culture, Detection is based on using the luciferase reaction to measure the amount of ATP from viable cells. The amount of ATP in cells correlates with cell viability. Within minutes after a loss of membrane integrity, cells lose the ability to synthesize ATP, and endogenous ATPases destroy any remaining ATP; thus the levels of ATP fall precipitously. The CellTiter-Glo® Reagent does three things upon addition to cells. It lyses cell membranes to release ATP; it inhibits endogenous ATPases, and it provides luciferin, luciferase and other reagents necessary to measure ATP using a bioluminescent reaction. The unique properties of a proprietary stable luciferase. There is a linear relationship (r2=0.99) between the luminescent signal and the number of cells from 0 to 50.000 cells per well.
All assays were performed by Reaction Biology Corporation (Malvern, Pa.) or ChemDiv, Inc. (San Diego, Calif.). […]
Conditions: 37° C., air 95%; HEPA-filtered carbon dioxide (CO2) 5%, humidified atmosphere. • Cells were grown in 175 cm^2 flasks to 80-90% of confluency. • Culture media was aspirated and cell layer was briefly rinsed with Versen solution to remove all traces of serum. • 2 mL of accutase was added to cells. • Flasks were retuned to incubator for 5 min to allow cell detachment. • Add 6.0 mL of complete growth medium. • Single cell suspension was created by gently pipetting. • Cells were counted using a Hematocytometer and a suspension with the desired cell concentration was prepared. […]
Stock solutions ([…]) were diluted with cell culture media to produce 500× serial dilutions and […] of final compound dilutions were added to cells in assay plates to screen a series of 10 doses starting at 100 mM. […] Luminescence intensity was measured for each well using the Tecan M 1000 microplate reader after 5 min of incubation with CellTiter-Glo Reagent. The number of viable cells in culture was determined based on quantitation of the ATP present in each culture well. […]

In the case of CN[C@@H]1C[C@H]2O[C@@](C)([C@@H]1OC)n1c3ccccc3c3c4c(c5c6ccccc6n2c5c31)C(=O)NC4 [Staurosporine, reference compound], the EC50 is reported as 4.8 nM.
